From US20250144247A1, “FORMULATIONS TO ENHANCE THE DELIVERY OF GENE THERAPY VECTORS” (priority 2023, published 2025)
Read-outs that look alike come from different tables or passages of the source.

What was measured:
[1] = test system: CFTR anion transport in CF HAE; test: Ussing chamber short circuit current and conductance of CF HAE; type: cell-based, human
[2] = test system: human airway epithelial cells (HAE); type: cell-based; details: for Ad gene transfer: imaged 5 days
[3] = test system: human airway epithelial cells (HAE); test: Scanning electron microscopy of HAE surface; details: NaCl 3.6% for 2 hours vs no NaCl control
[4] = test system: newborn pig tracheal explants; test: Pig tracheal explant transduction ex vivo; details: NaCl 5%, apical 2 hours
Protocol: 0.25 cm^2 tracheal explants from newborn pigs were cultured on Surgifoam (1972, Ethicon, Raritan, NJ) for 3-5 days prior to transduction. Ad5-mcherry (1×10^9 TU), AAVH22-GFP (2×10^10 vg), and GP64 HIV-GFP (1.75×10^7 TU) were applied with or without NaCl (5%) to the apical surface of the trachea by inverting the trachea onto a tissue culture dish containing the viral solution for 2 hours then returned to an upright position on Surgifoam. 5 days post-transduction, tracheal explants were mounted on a microscope slide and imaged for fluorescent expression using confocal microscopy. Expression was quantified using Image J (FIJI) by measuring fluorescence intensity per high power field.
Using freshly excised newborn pig tracheal explants maintained on Surgifoam, Ad-GFP or AAVH22-GFP (a pig-tropic AA V capsid)±NaCl (5%) was applied to the apical surface by inverting the tissue in a culture dish for 2 hours. One week later, tissues were fixed and imaged by confocal microscopy. […] Fluorescence was quantified by transduction area per high power field.

[5] = test system: cultured cells on plastic; test: Gene transfer of cultured cells on plastic with hypertonic saline; type: cell-based
pig airways = test: Viral gene transfer in pig airways; type: in vivo, newborn pigs
Protocol: Newborn pigs were sedated using isoflurane and viral vector formulated with NaCl (0.9% or 5% final) and acrosolized 2 ml intratracheally using a MADgic Laryngo-Tracheal Mucosal Atomization Device (Teleflex, Morrisville, NC). Doses for each vector for each pig were as follows: 2.8×10^10 infectious genomic units (IGU) of helper-dependent Ad-CMV-GFP and 7×10^8 TU of GP64 HIV-CMV-GFP. Doses were prepared by mixing a 1.8% NaCl or 10% NaCl stock 1:1 with 1 ml of vector. 1 week later, pigs were humanely euthanized, and lungs were analyzed for GFP expression. Lungs were systematically divided and fixed in 4% paraformaldehyde, subjected to a sucrose gradient, and embedded in OCT for cryosectioning. Sectioned lung slides were mounted using DAPI and imaged using a Keyence All-in-one Fluorescence Microscope BZ-X series (Osaka, Japan).
To determine cell types transduced in vivo, a pig model that more closely recapitulates the anatomy and cell biology of human airways was used. Newborn pigs received Ad-GFP via intratracheal delivery with 0.9% NaCl or 5% NaCl. Five days after delivery, lungs were collected and GFP expression was visualized under a fluorescence dissecting microscope (data not shown). Lungs were divided into 20 regions for systematic quantification as previously described (data not shown) and scored based on level of expression (0=no expression, 1=low expression, 2=moderate expression, and 3=high expression) (data not shown).

[6] = Osmolarity and pH of the solutions; type: physicochemical
mouse airways = test: Adenoviral transduction of mouse airways (Ad-luciferase, IVIS); type: in vivo, Balb/c mice; details: Ad-luciferase intratracheal, 7% NaCl vs 0.9% NaCl, five days
Protocol: 6-8-week-old Balb/c mice were sedated with ketamine/xylazine (87.5+2.5 mg/kg). Ad-CMV-firefly luciferase was delivered intratracheally with 1×10^9 TU formulated with NaCl (0.9% or 7% final) in a 50 ul volume. 5 days later mice were given intraperitoneal D-luciferin (50227, Millipore Sigma, St. Louis, MO) imaged for luminescence expression using the Xenogen IVIS-200.

[7] = test system: human airway epithelial cells (HAE); test: Transepithelial electrical resistance (TEER) of HAE after apical reagent; type: cell-based; details: apical 5 minutes; LPC 0.1%, EGTA 250 mM, doxorubicin 5 μM, NaCl 3.6%, Infasurf 35 mg/ml
Protocol: The University of Iowa In Vitro Models and Cell Culture Core cultured and maintained human airway epithelial cells (HAE) as previously described (33). Briefly, following enzymatic disassociation of trachea and bronchus epithelia, the cells were seeded onto collagen-coated, polycarbonate transwell inserts (0.4 μm pore size; surface area=0.33 cm^2; Corning Costar, Cambridge, MA). HAE were submerged in Ultroser G (USG) medium for 24 hours (37° C. and 5% CO2) at which point the apical media is removed to encourage polarization and differentiation at an air-liquid interface. Transepithelial electrical resistance was measured using an Ohmmeter […]
Disrupting the epithelial tight junctions allows Ad5-based viral vectors access to their basolaterally localized coxsackie and adenovirus receptor (CXADR) (12). Unless otherwise specified, these studies use the Ad5 serotype. […] First, reagents were applied to the apical surface of HAE for 5 minutes and then TEER was measured using an ohmmeter. […] In separate cultures, Ad-GFP (MOI=250) in 50 μl of DMEM combined 1:1 with the test reagents was applied to the apical surface for 2 hours. 5 days post-treatment, cells were imaged by fluorescence microscopy.

[8] = test system: human airway epithelial cells (HAE); type: cell-based
measles virus (MeV) = test: Measles virus (MeV) infection of HAE; type: cell-based, human; details: wild-type MeV, NaCl (4%)
Protocol: […] After infection, virus inoculums removed. […] After infection, basolateral-infected cultures were returned upright. All MeV infections took place for 4 hours in 37° C. at an MOI of 1 with a total inoculum of 50 μL.

[9] = test system: human airway epithelial cells (HAE); test: AAV2.5T-GFP transduction of HAE; type: cell-based; details: NaCl 4.5%, MOI=100,000 vg/cell, 2 hours, doxorubicin 1 μM pre-treatment, 2 weeks

Question: What does the source list for `[Cl-].[Na+]` [NaCl, sodium chloride]?
Answer: Cl− secretion (short circuit current and conductance, F&I and GlyH) ([1]; CF HAE, Ad-CFTR (MOI=250) and NaCl 3.6%, apical 2 hours, 5 days): wild-type levels of Cl^− secretion; anion channel activity responses to F&I and GlyH ([1]; CF airway cultures, AAV2.5T-CFTR with NaCl 4.5%, 2 weeks): increased anion channel activity responses; CFTR-dependent anion transport ([1]; primary CF HAE, GP64 HIV-CFTR (MOI=50) in the presence of NaCl 4.5%): restored the CFTR-dependent anion transport; Ad gene transfer ([2]; 0.9% NaCl (PBS), Ad-GFP MOI=250, apical 2 hours): did not enhance Ad gene transfer; transduction of basal, secretory and ciliated cells ([2]; 1-7% NaCl, Ad-GFP MOI=250): all transduced in a dose dependent manner; Ad-GFP transduction efficiency, comparison of osmolytes ([2]; 3.6% NaCl vs 3.6% NaGluconate, 3.6% KCl, 0.9% NaCl, 0.9% NaCl + mannitol, 2 h, 5 days): greatest increase in transduction efficiency; Ad gene transfer ([2]; Ad-GFP MOI=250 combined 1:1 with reagent, apical 2 hours, LPC 0.1%, EGTA 250 mM, doxorubicin 5 μM, NaCl 3.6%, Infasurf): conferred remarkable transduction; co-treatment time giving maximal expression ([2]; Ad-GFP with NaCl 3.6%): 2 h; % GFP+ cells across pH range ([2]; NaCl 3.6% adjusted to pH 5, 6, 7, 7.4 and 8, Ad-GFP): no significant differences; % GFP+ cells versus length of exposure ([2]; NaCl 3.6% or Ad-GFP for 5, 15, 30, 60 or 120 min): increased incrementally with increasing temporal exposure; Ad transduction efficiency (% GFP+ cells) ([2]; dose response 1-7% NaCl final, Ad-GFP MOI=250): dose dependent increase in transduction efficiency; benefit on Ad transduction ([2]; ≤3% NaCl): little benefit on transduction; cell surface integrity and ciliation by SEM [3]: no overt physical differences; transduction with Ad and AAVH22 (fluorescence per high power field) [4]: markedly enhanced; effect on cultured cells on plastic [5]: lifting of the cells; GFP+ score (0-3, 20 lung regions) (pig airways; Ad-GFP intratracheal, NaCl 5% vs 0.9%, five days): significantly increased; transduction of ciliated cells and CK5+ basal cells (pig airways; Ad-GFP, 5% NaCl): transduction of ciliated cells was observed; transduction of submucosal glands (pig airways; Ad-GFP, 5% NaCl): high levels of transduction; transduction of large (>500 μm^2) and small (<500 μm^2) airways (pig airways; Ad-GFP, 5% NaCl vs 0.9% NaCl): significantly more airway transduction; transduction by GP64 HIV-GFP (pig airways; NaCl 5% vs 0.9% NaCl): significantly enhanced transduction; Osmolarity ([6]; 0.9% solution): 310 mOsmol/l; Osmolarity ([6]; 1% solution): 342 mOsmol/l; Osmolarity ([6]; 2% solution): 684 mOsmol/l; Osmolarity ([6]; 3% solution): 1027 mOsmol/l; unadjusted pH ([6]; 3.6% NaCl in deionized water): ~6; Osmolarity ([6]; 3.6% solution): 1230 mOsmol/l; Osmolarity ([6]; 4% solution): 1369 mOsmol/l; Osmolarity ([6]; 5% solution): 1711 mOsmol/l; Osmolarity ([6]; 6% solution): 2053 mOsmol/l; Osmolarity ([6]; 7% solution): 2693 mOsmol/l; luciferase expression (bioluminescence) (mouse airways): significantly increased expression in the nose and lung; transepithelial electrical resistance (TEER) [7]: decreased TEER; transduction of primary human CF cultures, GP64 HIV-GFP ([8]; MOI=50, NaCl formulation): remarkable levels of transduction; GFP expression, GP64 HIV vector ([8]; non-CF HAE, 3.5, 4 or 4.5% NaCl, MOI=50): dose-dependent increase in GFP expression; MeV infection following apical application (measles virus (MeV)): occurred only in the presence of NaCl; GFP expression, AAV-GFP (AAV2.5T) [9]: significantly higher GFP expression
